Results taken from US6756399B2, “Use of lipoxygenase inhibitors and PPAR ligands as anti-cancer therapeutic and intervention agents” (The United States of America as represented by the …, priority 2001, dated 2004).
“Also recorded” adds a separate entry of the source.

Columns and labels:
PPARα [1] = experiment: RT-PCR for PPARα mRNA in breast cancer cell line ZR-75; type: cell-based; conditions: ZR-75, 5 μM, 24 and 48 hours
Protocol: (§1) Breast cancer cell line ZR-75 was grown in the presence of 5 μM inhibitors for 24 and 48 hrs, total RNA was isolated and RT-PCR performed for PPARα and PPARγ using specific primers. Results are presented as percent of control after normalizing with the actin values. The experiment was repeated three times. The error bars indicate standard deviation. […] All values were determined by assessment of % growth inhibition calculated from the optical density value, with a minimum of 6 replicates from at least three different experiments per cell line. The ligands included WY-14643 (open circles); LY 171883 (closed circles); fenofibrate (triangles); clofibrate (diamonds).
(§2) Cells were grown for 24 hrs or 48 hrs in the presence or absence of inhibitors at 5 μM concentration. RNA was isolated using the Trizol method (Life Technologies, Gaithersburg, Md.), and RT-PCR was performed using specific primers for PPAR and actin control genes.
(§3) Forward (F) and reverse (R) primers used to detect PPAR cDNAs were: […]
(§4) The ethidium bromide stained image was digitized and the optical density calculated using the NIH Image program. Values were normalized with the actin value obtained with commercially available primers (Clontech Inc., Palo Alto, Calif. ). These experiments were repeated three times.

PPARγ [2] = experiment: RT-PCR for PPARγ mRNA in breast cancer cell line ZR-75; type: cell-based; conditions: ZR-75, 5 μM, 24 and 48 hours
Protocol: as §1, §2, §3, §4

[3] = tested on: ZR-75 breast cancer cell line; experiment: Proliferation assay, breast cancer cell line ZR-75; type: cell-based; conditions: ZR-75, compared to vehicle control
Protocol: as §1
Cell lines used in the study were obtained from the American Type Culture Collection (Rockville, Md.). They included MCF-7, ZR-75, T47 D; SKBR-3, and MB-231. The cells were maintained in RPMI-1640, or MEM Zinc option medium, supplemented with 5% fetal bovine serum (FBS), penicillin (50 units/ml) and streptomycin (50 μg/ml) (Life Technologies, Gaithersburg, Md.), in a humidified atmosphere of 95% air and 5% CO2 at 37° C.

[4] = tested on: T47D breast cancer cell line; experiment: Proliferation assay, breast cancer cell line T47D; type: cell-based; conditions: compared to vehicle control
Protocol: as §1
(§5) (A) Northern blot analysis for PPARγ (1.8 Kb), of breast cancer cell line T47D treated with 5 μM MK 886 for 6, 12, 24 hrs and untreated control. RNA was isolated as described in Methods, and […] of total RNA was loaded per lane. Ethidium bromide staining of 28S rRNA was used to check for equal loading and RNA integrity (lower panel). (B) RNA isolated from T47D cells treated with 5 μM MK 886 for different time periods were subjected to RT-PCR using specific primers for PPARγ. The PCR products were normalized to actin gene and 18S. PCR products were quantified by densitometry and the data points presented are expressed as percent of control, and represent mean and SEM of three experiments. […]

H345 cell line = experiment: Apo-1 Caspase 3/7 apoptosis assay, H345; type: cell-based
Protocol: (§6) Lung cancer cell lines used for PPAR analysis included A549, H510, H345, and N417. The FLAP inhibitor: MK886 and COX inhibitor: indomethacin, and combinations thereof, were used as AA inhibitors. PPARs for the analysis included PGJ2 (γ ligand); ciglitazone (γ agonist); LY171882 (γ receptor activator); and WY 14643 (α activator). In order to analyze PPARs in lung cancer cells, growth inhibition (MTT, BrdU); apoptosis (Caspase 3/7 and M30 IHC); and mRNA Northern analyses were performed.
(§7) Apoptosis was determined at particular time points using the Apo-1Caspase 3/7 assay.

A549 cell line [5] = experiment: M30 immunohistochemistry for apoptosis, A549; type: cell-based
Protocol: as §6
(§8) M30 Immunohistochemistry was performed to test for apoptosis in the various lung cancer cell lines. […] Apoptosis was also observed in the H345 and N417 cell lines, but PPAR induction was low and no significant increase in PPAR protein expression was observed when tested in combination with PGJ2. […] In summary, combinations of FLAP inhibitors, cyclooxygenase inhibitors, and PPARγ ligands generally had additive effects in reducing lung cancer cell line growth; this generally correlated with measures of enhanced apoptosis.

[6] = tested on: A549, H510, H345, and N417 lung cancer cell lines; experiment: Growth inhibition (MTT, BrdU) in lung cancer cell lines; type: cell-based; conditions: all tested cell lines (A549, H510, H345, N417)
Protocol: as §6

H510 cell line [7] = experiment: M30 immunohistochemistry for apoptosis, H510; type: cell-based
Protocol: as §6, §8

PPARγ [8] = experiment: Northern analysis, PPARγ mRNA in A549; type: cell-based
Protocol: as §6
(§9) Northern analysis was performed with untreated cells and cells treated with AA inhibitors: MK886, indomethacin, or the combination of MK886 and indomethacin. […] There was also no expression after 24 hours of exposure to AA inhibitors, confirming previous Northern analyses. […] In the H510 cell line, no expression for PPARγ was observed.

PPARγ [9] = experiment: Northern analysis, PPARγ mRNA in H345; type: cell-based
Protocol: as §6, §9

15-HETE = 15-HETE production after exposure to FLAP inhibitor; type: cell-based; conditions: in response to exposure to MK 886
PPARγ [10] = experiment: Northern blot analysis for PPARγ in T47D cells; type: cell-based, human; conditions: 5 μM MK886, 0, 6, 12, 24 hours
Protocol: as §5, with “experiments. (C) Breast cancer cell line T47D, was incubated with various concentrations of MK886 (circles) and then analyzed using a proliferation assay. After 12 hr incubation, the inhibitors were removed and replaced by media alone (open circles), or media with 4 μM LY 171883 (closed circles). LY 171883 in the presence of media without the FLAP inhibitor is shown (stars).” for “experiments.”
After treatment for the indicated time points (5 μM MK886 at 0, 6, 12, 24 hours), cells were washed with PBS and total RNA was extracted using the RNeasy Mini Kit (QUIAGEN Inc., Valencia, Calif.). […] Equal loading and integrity of RNA was monitored by ethidium bromide staining (FIG. 2A). […]

PPARγ [11] = experiment: Semi-quantitative RT-PCR for PPARγ in T47D cells; type: cell-based; conditions: 5 μM MK886, different time periods
Protocol: (A) Northern blot analysis for PPARγ (1.8 Kb), of breast cancer cell line T47D treated with 5 μM MK 886 for 6, 12, 24 hrs and untreated control. RNA was isolated as described in Methods, and […] of total RNA was loaded per lane. Ethidium bromide staining of 28S rRNA was used to check for equal loading and RNA integrity (lower panel). (B) RNA isolated from T47D cells treated with 5 μM MK 886 for different time periods were subjected to RT-PCR using specific primers for PPARγ. The PCR products were normalized to actin gene and 18S. PCR products were quantified by densitometry and the data points presented are expressed as percent of control, and represent mean and SEM of three experiments. (C) Breast cancer cell line T47D, was incubated with various concentrations of MK886 (circles) and then analyzed using a proliferation assay. After 12 hr incubation, the inhibitors were removed and replaced by media alone (open circles), or media with 4 μM LY 171883 (closed circles). LY 171883 in the presence of media without the FLAP inhibitor is shown (stars). After an additional 24 hr incubation time, the experiments were terminated. All values were determined by assessment of % growth inhibition calculated from the optical density value, with a minimum of 6 replicates from at least three different experiments. The error bars indicate standard deviation. […]

A549 cell line [12] = experiment: Apo-1 Caspase 3/7 apoptosis assay, A549; type: cell-based
Protocol: as §6, §7

N417 cell line = experiment: Apo-1 Caspase 3/7 apoptosis assay, N417; type: cell-based
Protocol: as §6, §7

H510 cell line [13] = experiment: Apo-1 Caspase 3/7 apoptosis assay, H510; type: cell-based
Protocol: as §6, §7

PPARα [14] = experiment: Northern analysis, PPARα mRNA in A549; type: cell-based
Protocol: as §6, §9

PPARδ = experiment: Northern analysis, PPARδ mRNA in A549; type: cell-based
Protocol: as §6, §9

## CC(Cc1ccc(O)c(O)c1)C(C)Cc1ccc(O)c(O)c1 (stereo not drawn) [NDGA, Nordihydroguaiaretic acid]
PPARα [1]
  PPARα expression: up-regulation
PPARγ [2]
  PPARγ expression: up-regulation

## CCOC(=O)C(C)(C)Oc1ccc(Cl)cc1 [clofibrate, 2-(4-chlorophenoxy)-2-methylpropanoic acid ethyl ester]
[3]
  breast tumor cell growth: dose dependent growth reduction
[4]
  breast tumor cell growth: dose dependent growth reduction

## CCCc1c(OCCCCc2nnn[nH]2)ccc(C(C)=O)c1O [LY 171883]
[3]
  breast tumor cell growth: dose dependent growth reduction
[4]
  breast tumor cell growth: dose dependent growth reduction
H345 cell line
  apoptosis (Caspase 3/7): neither LY171882 or WY 14643 (α activator) induced apoptosis
A549 cell line [5]
  apoptosis (M30 immunohistochemistry): Some apoptosis also occurred

## CCCCC/C=C/C=C1/C(=O)C=C[C@@H]1C/C=C\CCCC(=O)O [PGJ2, 15-Deoxy-Δ^12,14-Prostaglandin J2]
[6]
  growth of lung cancer cell lines: reduced growth in a dose dependent manner
H510 cell line [7]
  apoptosis (M30 immunohistochemistry): apoptosis in the H510 cell line was observed
PPARγ [8]
  PPARγ mRNA (Northern): mRNA decreases to those levels observed with control
PPARγ [9]
  PPARγ expression (Northern): down regulated mRNA

## CC(C)c1ccc2c(c1)c(SC(C)(C)C)c(CC(C)(C)C(=O)O)n2Cc1ccc(Cl)cc1 [MK886, 3-[1-(4-chlorobenzyl)-3-t-butyl-thio-5-isopropylindol-2-yl]-2,2-dimethylpropanoic acid]
PPARα [1]
  PPARα expression: up-regulation
PPARγ [2]
  PPARγ expression: up-regulation
15-HETE
  15-HETE production: large increase
PPARγ [10]
  PPARγ expression (Northern blot): induction of PPARγ is evident within six hours; also recorded: PPARγ expression levels increase
PPARγ [11]
  PPARγ induction (semi-quantitative RT-PCR): induction of PPARγ is more protracted
[6]
  growth of lung cancer cell lines: inhibited all tested cell lines in a dose dependent manner ranging from 0.25 to 2.0 μM
A549 cell line [12]
  apoptosis (Caspase 3/7): increased apoptosis
N417 cell line
  apoptosis (Caspase 3/7): two fold increase in apoptosis
H510 cell line [13]
  apoptosis (Caspase 3/7): two fold induction of apoptosis
H345 cell line
  apoptosis (Caspase 3/7): induced apoptosis
H510 cell line [7]
  apoptosis (M30 immunohistochemistry): apoptosis in the H510 cell line was observed
PPARγ [8]
  PPARγ mRNA (Northern): Up-regulation of PPARγ
PPARα [14]
  PPARα mRNA (Northern): no mRNA for PPARα
PPARδ
  PPARδ mRNA (Northern): some mRNA observed for PPARδ
PPARγ [9]
  PPARγ expression (Northern): PPARγ expression was induced

## CC1(COc2ccc(CC3SC(=O)NC3=O)cc2)CCCCC1 (racemic) [ciglitazone, (±)-5-[4-(1-Methylcyclohexylmethoxy)-benzyl] thiazolidine-2,4-dione]
[6]
  growth of lung cancer cell lines: reduced growth in a dose dependent manner
H345 cell line
  apoptosis (Caspase 3/7): induced apoptosis

## COc1ccc2c(c1)c(CC(=O)O)c(C)n2C(=O)c1ccc(Cl)cc1 [indomethacin]
[6]
  growth of lung cancer cell lines: no effect on growth, even at a concentration of greater than 10 μM
H510 cell line [13]
  apoptosis (Caspase 3/7): two fold induction of apoptosis
H510 cell line [7]
  apoptosis (M30 immunohistochemistry): apoptosis in the H510 cell line was observed
PPARγ [8]
  PPARγ mRNA (Northern): Up-regulation of PPARγ
